Measurements taken from ChEMBL document CHEMBL1201862, “PubChem BioAssay data set” (2004).
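A five-concentration, 48-hour dose response in 96-well plates underlies each endpoint, interpolated linearly between surrounding concentrations. At the GI50, growth is halved.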 Active and inactive are the calls of the source. No stated cut-off is given here; in the data, active = GI50 up to about 1.1 µM and inactive = higher.

Assays:
Experiment in all cases: NCI anticancer screen, dose series, 48 h
SK-OV-3 = system: SK-OV-3
CCRF-CEM = system: CCRF-CEM
T47D = system: T47D
IGROV-1 = system: IGROV-1
OVCAR-5 = system: OVCAR-5
SN12C = system: SN12C
MDA-MB-435 = system: MDA-MB-435
OVCAR-4 = system: OVCAR-4
EKVX = system: EKVX
NCI-H460 = system: NCI-H460
LOX IMVI = system: LOX IMVI
TK-10 = system: TK-10
NCI/ADR-RES = system: NCI/ADR-RES
Hs-578T = system: Hs-578T
HOP-62 = system: HOP-62
KM12 = system: KM12
UACC-62 = system: UACC-62
HCC 2998 = system: HCC 2998
SK-MEL-2 = system: SK-MEL-2
SF-295 = system: SF-295
DU-145 = system: DU-145
HOP-92 = system: HOP-92
U-251 = system: U-251
HT-29 = system: HT-29
RPMI-8226 = system: RPMI-8226
MCF7 = system: MCF7
HL-60 = system: HL-60
HCT-15 = system: HCT-15
RXF 393 = system: RXF 393
SK-MEL-28 = system: SK-MEL-28
OVCAR-8 = system: OVCAR-8
BT-549 = system: BT-549
ACHN = system: ACHN
A549 = system: A549
OVCAR-3 = system: OVCAR-3
CAKI-1 = system: CAKI-1
SNB-75 = system: SNB-75
A498 = system: A498
MDA-MB-231 = system: MDA-MB-231
SW-620 = system: SW-620
MDA-N = system: MDA-N
PC-3 = system: PC-3
NCI-H522 = system: NCI-H522
NCI-H226 = system: NCI-H226
MOLT-4 = system: MOLT-4
K562 = system: K562
UACC-257 = system: UACC-257
M14 = system: M14
SR = system: SR
SNB-19 = system: SNB-19
SF-539 = system: SF-539
SK-MEL-5 = system: SK-MEL-5
786-0 = system: 786-0
HCT-116 = system: HCT-116
Malme-3M = system: Malme-3M
NCI-H23 = system: NCI-H23
COLO 205 = system: COLO 205
SF-268 = system: SF-268
UO-31 = system: UO-31

CN(C)CCNc1ccc2c(=O)n(CCN(C)C)c(=O)n3c4ccc(N)cc4c(=O)c1c23
GI50 (SK-OV-3): 0.261 µM (active)
GI50 (CCRF-CEM): < 0.01 µM (active)
GI50 (T47D): 0.207 µM (active)
GI50 (IGROV-1): < 0.0124 µM (active)
GI50 (OVCAR-5): 0.0998 µM (active)
GI50 (SN12C): < 0.01 µM (active)
GI50 (MDA-MB-435): 0.101 µM (active)
GI50 (OVCAR-4): 0.0721 µM (active)
GI50 (EKVX): 0.119 µM (active)
GI50 (NCI-H460): < 0.01 µM (active)
GI50 (LOX IMVI): 0.0775 µM (active)
GI50 (TK-10): 0.318 µM (active)
GI50 (NCI/ADR-RES): 0.259 µM (active)
GI50 (Hs-578T): 0.178 µM (active)
GI50 (HOP-62): 0.109 µM (active)
GI50 (KM12): 0.0644 µM (active)
GI50 (UACC-62): 0.393 µM (active)
GI50 (HCC 2998): 0.0392 µM (active)
GI50 (SK-MEL-2): 0.117 µM (active)
GI50 (SF-295): 0.0671 µM (active)
GI50 (DU-145): 0.0665 µM (active)
GI50 (HOP-92): 0.0807 µM (active)
GI50 (U-251): 0.0264 µM (active)
GI50 (HT-29): < 0.01 µM (active)
GI50 (RPMI-8226): 0.04 µM (active)
GI50 (MCF7): < 0.012 µM (active)
GI50 (HL-60): 0.0434 µM (active)
GI50 (HCT-15): 0.0211 µM
GI50 (RXF 393): 0.0769 µM (active)
GI50 (SK-MEL-28): 0.24 µM (active)
GI50 (OVCAR-8): < 0.01 µM (active)
GI50 (BT-549): 0.407 µM (active)
GI50 (ACHN): < 0.01 µM (active)
GI50 (A549): < 0.01 µM (active)
GI50 (OVCAR-3): 0.0995 µM (active)
GI50 (CAKI-1): 0.115 µM (active)
GI50 (SNB-75): 0.0782 µM (active)
GI50 (A498): 0.408 µM (active)
GI50 (MDA-MB-231): 0.187 µM (active)
GI50 (SW-620): < 0.01 µM (active)
GI50 (MDA-N): 0.0502 µM (active)
GI50 (PC-3): 0.0608 µM (active)
GI50 (NCI-H522): < 0.01 µM (active)
GI50 (NCI-H226): < 0.0215 µM (active)
GI50 (MOLT-4): < 0.01 µM (active)
GI50 (K562): < 0.01 µM (active)
GI50 (UACC-257): 0.258 µM (active)
GI50 (M14): 0.12 µM (active)
GI50 (SR): < 0.0194 µM (active)
GI50 (SNB-19): 0.0261 µM (active)
GI50 (SF-539): 0.0395 µM (active)
GI50 (SK-MEL-5): 0.194 µM (active)
GI50 (786-0): < 0.01 µM (active)
GI50 (HCT-116): < 0.01 µM (active)
GI50 (Malme-3M): 0.116 µM (active)
GI50 (NCI-H23): 0.0361 µM (active)
GI50 (COLO 205): 0.0675 µM (active)
GI50 (SF-268): < 0.0272 µM (active)
GI50 (UO-31): 0.0382 µM (active)

COc1ccc(SCc2cc(OC)ccc2OC)cc1
GI50 (SK-OV-3): 12 µM (inactive)
GI50 (CCRF-CEM): 17.5 µM (inactive)
GI50 (T47D): 25.5 µM (inactive)
GI50 (IGROV-1): 15.9 µM (inactive)
GI50 (OVCAR-5): 24.5 µM (inactive)
GI50 (SN12C): 55.3 µM (inactive)
GI50 (MDA-MB-435): 2.75 µM (inactive)
GI50 (OVCAR-4): 20.8 µM (inactive)
GI50 (EKVX): > 56.1 µM (inactive)
GI50 (NCI-H460): 37.4 µM (inactive)
GI50 (LOX IMVI): 34.8 µM (inactive)
GI50 (TK-10): > 93.3 µM (inactive)
GI50 (NCI/ADR-RES): 13.2 µM (inactive)
GI50 (Hs-578T): 29.5 µM (inactive)
GI50 (HOP-62): 59.8 µM (inactive)
GI50 (KM12): 4.23 µM (inactive)
GI50 (UACC-62): 18.8 µM (inactive)
GI50 (HCC 2998): 9.77 µM (inactive)
GI50 (SK-MEL-2): 8.59 µM (inactive)
GI50 (SF-295): 32.2 µM (inactive)
GI50 (DU-145): 44.4 µM (inactive)
GI50 (HOP-92): 13.5 µM (inactive)
GI50 (U-251): 11.2 µM (inactive)
GI50 (HT-29): 13.7 µM (inactive)
GI50 (RPMI-8226): 34 µM (inactive)
GI50 (MCF7): 15.1 µM (inactive)
GI50 (HL-60): 6.01 µM (inactive)
GI50 (HCT-15): 6.58 µM
GI50 (RXF 393): 40.6 µM (inactive)
GI50 (SK-MEL-28): 64.3 µM (inactive)
GI50 (OVCAR-8): 96.4 µM (inactive)
GI50 (BT-549): 16.1 µM (inactive)
GI50 (ACHN): 97.3 µM (inactive)
GI50 (A549): 22.4 µM (inactive)
GI50 (OVCAR-3): > 40.6 µM (inactive)
GI50 (CAKI-1): 31.9 µM (inactive)
GI50 (SNB-75): 11.1 µM (inactive)
GI50 (A498): 18.7 µM (inactive)
GI50 (MDA-MB-231): 82.2 µM (inactive)
GI50 (SW-620): 10.6 µM (inactive)
GI50 (MDA-N): 3.33 µM (inactive)
GI50 (PC-3): 32.8 µM (inactive)
GI50 (NCI-H522): 18.8 µM (inactive)
GI50 (NCI-H226): 25.3 µM (inactive)
GI50 (MOLT-4): 8.24 µM (inactive)
GI50 (K562): 4.24 µM (inactive)
GI50 (UACC-257): 74 µM (inactive)
GI50 (M14): 57.5 µM (inactive)
GI50 (SR): 6.55 µM (inactive)
GI50 (SNB-19): 34 µM (inactive)
GI50 (SF-539): 39.2 µM (inactive)
GI50 (SK-MEL-5): 16.1 µM (inactive)
GI50 (786-0): > 85.5 µM (inactive)
GI50 (HCT-116): 33.8 µM (inactive)
GI50 (Malme-3M): 55.6 µM (inactive)
GI50 (NCI-H23): 37.9 µM (inactive)
GI50 (COLO 205): 15.6 µM (inactive)
GI50 (SF-268): > 56.6 µM (inactive)
GI50 (UO-31): 27.6 µM (inactive)
